Patent publication US8524686B2, “Composition for prevention or treatment of eye diseases” (Benebiosis Co., Ltd., priority 2008, dated 2013)

Key:
[1] = system: experimental dry eye (EDE) mice; assay: Measurement of tear production with cotton thread in mouse model of dry eye; assay type: in vivo, C57BL/6 mice; conditions: for Tear production (thread's wet length): n = 6, cotton thread 60 seconds
Protocol: (§1) 6 to 8 weeks old C57BL/6 mice (Central Lab Animal, Seoul, Korea) were used for mouse model for dry eye syndrome. All animals were treated according to the ARVO Statement for the Use of Animals in Ophthalmic and Vision Research. Experimental dry eye (EDE) was induced by subcutaneous injection of 0.5 mg/0.2 mL scopolamine hydrobromide (Sigma-Aldrich, St. Louis, Mo.) in alternating hindquarters administered four times a day (9 AM, […], 3 PM and 6 PM) and by exposure to air and ≦40% ambient humidity for 18 hours per day, as previously reported (23). Four experimental groups were evaluated: untreated group (UT), EDE group (control), EDE+sialyllactose (1 mg/kg) group and EDE+sialyllactose (5 mg/kg) group.
Tear production was measured with cotton thread (Zone-quick; Oasis). The thread was held with jeweler forceps and applied to the ocular surface in the lateral canthus for 60 seconds. Wetting of the thread was measured in millimeters, using the scale on the cotton thread.
Tear production at the ocular surface in the lateral canthus from the UT, EDE and two treatment groups (6 eyes/group/experiment, in four different sets of experiments) was measured with cotton thread.

[2] = system: MMP-9; assay: RT-PCR of MMP-9 RNA transcripts in corneal epithelial cells of EDE mice; assay type: in vivo, murine
Protocol: as §1
(§2) Corneal and conjunctival epithelial cells acquired from six eyes per each test group. Total RNA was isolated using Trizol reagent (JBI Co., Korea) and kept at −80° C. until use. cDNA was synthesized by reverse transcriptase with an oligo dT-adaptor primer from an RNA PCR kit (Bioneer, Korea) according to the manufacturer's recommended protocol. […] In RT-PCR assay, utilization of the same quantity of mRNA was confirmed by analyzing expression level of mGAPDH. […]
(§3) The level of RNA transcripts encoding MMP-9, IL-1β, TNF-α and the housekeeping gene GAPDH were evaluated by RT-PCR using the total RNA of the corneal epithelial cells obtained from each group (UT, EDE and EDE+sialyllactose). […]

[3] = system: IL-1β; assay: RT-PCR of IL-1β RNA transcripts in corneal epithelial cells of EDE mice; assay type: in vivo, murine
Protocol: as §1, §2, §3

[4] = system: TNF-α; assay: RT-PCR of TNF-α RNA transcripts in corneal epithelial cells of EDE mice; assay type: in vivo, murine
Protocol: as §1, §2, §3

[5] = system: murine MMP-9; assay: SDS-PAGE gelatin zymography of corneal and conjunctival epithelial cells of EDE mice; assay type: in vivo; conditions: FIG. 3
Protocol: as §1
In order to determine the relative concentration of gelatinases in corneal and conjunctival epithelial cells, SDS-PAGE gelatin zymography was performed by using a previously reported method (24). Tissue was homogenized in a sample buffer containing 50 mM Tris-HCl (pH 8.0), 150 mM NaCl, 0.02% NaN3, […] phenylmethylsulfonyl fluoride (PMSF) and 1% Triton X-100. […]
Gelatinolytic activity (105 kDa gelatinolytic band corresponds to murine MMP-9) was evaluated in corneal and conjunctival epithelial cells acquired from the UT, EDE and two treatment groups.

[6] = target: T1, VEGFR-2 (Homo sapiens, UniProt P35968); assay: Western blotting of VEGF-stimulated VEGFR-2 phosphorylation in HREC; assay type: cell-based; conditions: endothelial cells (HREC), concentration-dependent, FIG. 4
T1 construct: host or cells: human retinal endothelial cells (HREC), passages 4 to 6
Protocol: (§4) Human retinal endothelial cells (HREC) were acquired from Sciencell (USA). The cells were cultured in sterilized endothelial cell medium (ECM, Sciencell, USA), and kept in a humidified 5% CO2 incubator at 37° C. Passages 4 to 6 of the HREC were used for testing.
(§5) HREC were homogenized in a buffer containing 50 mM Tris-HCl (pH 8.0), 150 mM NaCl, 0.02% NaN3, 100 μg/mL PMSF, 1 μg/mL aprotinin and 1% Triton X-100. Protein concentration was measured using a Bio-Rad protein assay (Bio-Rad, USA). Thirty (30) μg of the total cell lysate sample was separated by SDS-PAGE based on size, and subjected to electrophoretic migration toward a nitrocellulose membrane using a Hoefer electrophoresis system (Amersham Biosciences, UK). For detection of target protein, the membrane was reacted with p-AKT, ERK, p-ERK, VEGFR-2 (flk-1, Q-20), VE-cadherin, FAK, paxillin, vincullin (SantaCruz Biotechnology, USA) and p-VEGFR-2 (Cell Signaling Tech., USA) antibodies. Detection was carried out using secondary horseradish peroxidase-bound anti-rabbit IgG antibody, anti-goat IgG antibody and anti-mouse IgG antibody (SantaCruz Biotechnology, USA), and using ECL chemiluminescence system (Amersham Biosciences, UK).
(§6) VEGF-mediated VEGFR-2 activation plays an important role in tumor angiogenesis via the activation of VEGFR-2 downstream signal pathways in endothelial cells (25). […]

[7] = system: AKT; assay: Western blotting of VEGF-induced AKT activation in HREC; assay type: cell-based, human; conditions: FIG. 4
Protocol: as §4, §5, §6

[8] = system: human retinal endothelial cells (HREC); assay: Tube formation assay on Matrigel, VEGF-stimulated HREC; assay type: cell-based; conditions: 24 hours, concentration-dependent, FIG. 5
Protocol: as §4
Sialyllactose's inhibition effect against HREC's capillary-like network induced by VEGF was investigated using Matrigel-coated 24-well culture plate. Matrigel (13.9 mg/mL) was melted overnight at 4° C. and mixed with ECM medium at a ratio of 1:1. After adding 70 μL of Matrigel (6.95 mg/mL) diluted with ECM to each well of the 24-well culture plate, polymerization was performed for 1 hour at 37° C. For evaluation of tube formation, HREC were detached from the tissue culture plate, washed, resuspended in ECM medium containing 1% FBS (1×10^4 cells/well), and added to the Matrigel-coated well in the presence or absence of VEGF along with sialyllactose at various concentrations. The plate was incubated in a 5% CO2 incubator for 24 hours at 37° C., and capillary-like tube formed in each well of the plate was photographed using a Nikon optical microscope.
The VEGF-mediated VEGFR-2 activation is closely associated with the angiogenic action of endothelial cells such as proliferation, migration, survival and tube formation (25). […]

[9] = system: FAK; assay: Immunofluorescence microscopy of anti-FAK stained focal adhesions in VEGF-stimulated HREC; assay type: cell-based, human; conditions: HREC stimulated with 50 ng/mL VEGF, FIG. 6 C
Protocol: as §4
(§7) HREC were inoculated onto 12 mm n-sterilized, gelatin-coated coverslip of 6-well tissue culture plate. In the presence or absence of sialyllactose, HREC were immobilized with 3.7% formalin with or without treatment with VEGF. Then, the cells were passed through […] Triton X-100 in PBS and washed three times with PBS. Non-specific sites were blocked with PBS-containing 1% bovine serum albumin, while gently shaking at ambient temperature for 30 minutes. After immersing the cells in a solution of FAK, paxillin, vincullin and VE-cadherin antibodies, the cells were incubated overnight at 4° C. After washing with PBS, the cells were further reacted with Alexa Flour 594-conjugate goat anti-mouse IgG (Molecular Probes, USA) and Alexa Flour 488-conjugate goat anti-rabbit IgG (Molecular Probes, USA) at ambient temperature for 1 hour. After washing with PBS, analysis was carried out by fluorescence microscopy. Primary antibodies previously bound to antigens or secondary antibodies were used as negative control. […]

[10] = system: paxillin; assay: Immunofluorescence microscopy of anti-paxillin stained focal adhesions in VEGF-stimulated HREC; assay type: cell-based, human; conditions: HREC stimulated with 50 ng/mL VEGF, FIG. 6 G
Protocol: as §4, §7

[11] = system: VE-cadherin; assay: Immunofluorescence microscopy of VEGF-induced intercellular adhesion (VE-cadherin staining) in HREC; assay type: cell-based, human; conditions: VEGF-stimulated HREC, one hour after VEGF stimulation, FIG. 7 C
Protocol: as §4, §7

[12] = corneal epithelial cells, EDE group treated with sialyllactose, FIG. 2

T1 sequence (P35968 20-1356): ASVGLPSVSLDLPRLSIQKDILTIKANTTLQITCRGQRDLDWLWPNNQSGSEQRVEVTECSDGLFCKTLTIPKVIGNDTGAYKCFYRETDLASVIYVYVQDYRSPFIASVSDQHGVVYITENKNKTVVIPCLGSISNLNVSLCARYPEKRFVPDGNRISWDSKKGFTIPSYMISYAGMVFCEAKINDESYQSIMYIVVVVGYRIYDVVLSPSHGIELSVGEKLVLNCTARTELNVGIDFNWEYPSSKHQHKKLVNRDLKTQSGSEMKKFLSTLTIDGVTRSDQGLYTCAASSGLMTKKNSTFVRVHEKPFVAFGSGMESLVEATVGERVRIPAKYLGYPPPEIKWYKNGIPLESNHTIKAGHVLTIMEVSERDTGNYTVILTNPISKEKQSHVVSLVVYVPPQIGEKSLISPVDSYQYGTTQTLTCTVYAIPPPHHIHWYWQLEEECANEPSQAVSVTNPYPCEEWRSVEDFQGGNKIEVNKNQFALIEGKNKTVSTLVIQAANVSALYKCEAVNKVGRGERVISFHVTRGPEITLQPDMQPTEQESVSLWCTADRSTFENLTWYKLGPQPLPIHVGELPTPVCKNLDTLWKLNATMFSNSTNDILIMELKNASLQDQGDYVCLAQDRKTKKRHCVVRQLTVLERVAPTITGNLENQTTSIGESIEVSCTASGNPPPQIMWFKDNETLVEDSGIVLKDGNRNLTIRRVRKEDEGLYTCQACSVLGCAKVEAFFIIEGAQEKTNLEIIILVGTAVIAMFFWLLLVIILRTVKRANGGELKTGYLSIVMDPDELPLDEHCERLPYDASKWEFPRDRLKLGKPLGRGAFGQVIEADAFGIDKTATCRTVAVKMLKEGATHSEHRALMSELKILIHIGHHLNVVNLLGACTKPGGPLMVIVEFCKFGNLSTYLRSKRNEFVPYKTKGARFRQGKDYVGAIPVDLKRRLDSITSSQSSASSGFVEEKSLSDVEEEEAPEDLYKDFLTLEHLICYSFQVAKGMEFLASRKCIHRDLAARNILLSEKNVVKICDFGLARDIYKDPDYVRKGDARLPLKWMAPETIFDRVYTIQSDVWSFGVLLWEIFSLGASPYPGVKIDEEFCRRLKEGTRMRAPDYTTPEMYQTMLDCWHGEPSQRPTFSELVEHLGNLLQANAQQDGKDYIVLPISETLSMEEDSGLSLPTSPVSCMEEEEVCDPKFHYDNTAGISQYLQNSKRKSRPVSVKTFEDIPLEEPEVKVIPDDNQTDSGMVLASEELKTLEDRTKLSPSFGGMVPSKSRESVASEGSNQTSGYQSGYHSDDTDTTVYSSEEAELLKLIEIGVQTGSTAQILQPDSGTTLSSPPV

With `CC(=O)N[C@H]1[C@H]([C@H](O)[C@H](O)CO)O[C@@](O[C@H]2[C@@H](O)[C@@H](CO)O[C@@H](O[C@H]3[C@H](O)[C@@H](O)C(O)O[C@@H]3CO)[C@@H]2O)(C(=O)O)C[C@@H]1O` (stereo partly drawn) [sialyllactose, Neu5Ac α-2,3-D-Gal β-1,4-D-Glc] the “Tear production versus EDE group” value ([1]; EDE + sialyllactose test groups (1 and 5 mg/kg)) was “statistically significant increased tear production”, the “Tear production (thread's wet length)” value ([1]; EDE mice + sialyllactose 1 mg/kg) was 1.55 ± 0.48 mm and the “Tear production (thread's wet length)” value ([1]; EDE mice + sialyllactose 5 mg/kg) was 1.45 ± 0.34 mm. The “Decrease in expression of MMP-9 gene, 5 mg/kg compared with 1 mg/kg group” value ([2]; EDE + sialyllactose 5 mg/kg) was “larger decrease”, the “Level of MMP-9 transcripts” value [2, 12] was “decreased” and the “Decrease in expression of IL-1β gene, 5 mg/kg compared with 1 mg/kg group” value ([3]; EDE + sialyllactose 5 mg/kg) was “larger decrease”. For the same molecule, the “Level of IL-1β transcripts” value [3, 12] was “decreased”, the “Decrease in expression of TNF-α gene, 5 mg/kg compared with 1 mg/kg group” value ([4]; EDE + sialyllactose 5 mg/kg) was “larger decrease” and the “Level of TNF-α transcripts” value [4, 12] was “decreased”. The “Gelatinolytic activity (105 kDa band, MMP-9)” value ([5]; EDE + sialyllactose 1 mg/kg) was “decreased gelatinolytic activity”, the “Gelatinolytic activity (105 kDa band, MMP-9)” value ([5]; EDE + sialyllactose 5 mg/kg) was “decreased gelatinolytic activity” and the “VEGF-stimulated VEGFR-2 phosphorylation” value [6] was “strongly reduced”. The “VEGF-induced AKT activation” value [7] was “markedly reduced”, the “Width and length of the tube” value [8] was “significantly reduced” and the “Focal adhesions immunostained with anti-FAK” value [9] was “markedly inhibited”. For the same molecule, the “Recruitment and increase of anti-paxillin immunostaining of focal adhesions” value [10] was “certainly blocked” and the “Sharp and continuous intercellular contact areas (VE-cadherin staining)” value [11] was “recovered”.
